In patent US9376418B2, “Substituted pyridine spleen tyrosine kinase (SYK) inhibitors” (Merck Sharp & Dohme Corp., priority 2012, dated 2016):

Biological target: T1, recombinant human GST-SYK (Homo sapiens, UniProt P43405)
T1 construct: purchased Carna Biosciences 08-176
Test: Homogeneous Time-Resolved Fluorescence (HTRF) assay for the recombinant human Syk enzyme
Type: biochemical
Conditions: HTRF assay, recombinant human GST-SYK; IC50 given as class symbols; read-out: rhSYK Activity
In short: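 Phosphorylation of a biotinylated Syk substrate peptide (250 nM) was run for 45 min at room temperature with 25 μM ATP and 5 mM Mg. It followed a 10-min preincubation of GST-hSYK ([…]) with compound in 15 mM Tris-HCl pH 7.5, 2 mM DTT. Product was detected by time-resolved fluorescence using a europium anti-phosphotyrosine antibody plus SA-APC in EDTA-containing quench buffer.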

IC50	SMILES
< 100 nM	CC(=O)Nc1cc(Nc2nccc(C(F)(F)F)n2)cc(-c2ccc(NC3CCNC3=O)nc2)c1 (stereo not shown) [Example 7.3, N-(3-{6-[(2-oxopyrrolidin-3-yl)amino]pyridin-3-yl}-5-{[4-(trifluoromethyl)pyrimidin-2-yl]amino}phenyl)acetamide]
< 100 nM	CC(=O)Nc1cc(Nc2nccc(C(F)(F)F)n2)cc(-c2ccc(N3CCNC(=O)CC3)nc2)c1 [Example 7.4, N-(3-[6-(5-oxo-1,4-diazepan-1-yl)pyridin-3-yl]-5-{[4-(trifluoromethyl)pyrimidin-2-yl]amino}phenyl)acetamide]
< 100 nM	CC(=O)Nc1cc(Nc2nccc(C(F)(F)F)n2)cc(-c2ccc(N3CCNC(=O)C3)nc2)c1 [Example 7.5, N-(3-[6-(3-oxopiperazin-1-yl)pyridin-3-yl]-5-{[4-(trifluoromethyl)pyrimidin-2-yl]amino}phenyl)acetamide]
< 100 nM	Cc1cc(Nc2nccc(C(F)(F)F)n2)cc(-c2ccc(NC(C)(C)C(=O)O)nc2)c1 [Example 7.7, 2-methyl-N-[5-(3-methyl-5-{[4-(trifluoromethyl)pyrimidin-2-yl]amino}phenyl)pyridin-2-yl]alanine]
100 to 1000 nM	Cc1cc(Nc2nccc(C(F)(F)F)n2)cc(-c2ccc(N3CCCC4(CCCNC4=O)C3)nc2)c1 (stereo not shown) [Example 7.9, 8-[5-(3-methyl-5-{[4-(trifluoromethyl)pyrimidin-2-yl]amino}phenyl)pyridin-2-yl]-2,8-diazaspiro[5.5]undecan-1-one]
100 to 1000 nM	Cc1cc(Nc2nccc(C(F)(F)F)n2)cc(-c2ccc(N3CCC4(CCCCN4)CC3)nc2)c1 [Example 7.10, N-{3-[6-(1,9-diazaspiro[5.5]undec-9-yl)pyridin-3-yl]-5-methylphenyl}-4-(trifluoromethyl)pyrimidin-2-amine]
100 to 1000 nM	Cc1cc(Nc2nccc(C(F)(F)F)n2)cc(-c2ccc(N3CCCC4(C3)OCCO4)nc2)c1 [Example 7.12, N-{3-[6-(1,4-dioxa-7-azaspiro[4.5]dec-7-yl)pyridin-3-yl]-5-methylphenyl}-4-(trifluoromethyl)pyrimidin-2-amine]
< 100 nM	Cc1cc(Nc2nccc(C(F)(F)F)n2)cc(-c2ccc(NCC(O)C(F)F)nc2)c1 (stereo not shown) [Example 7.17, 1,1-difluoro-3-{[5-(3-methyl-5-{[4-(trifluoromethyl)pyrimidin-2-yl]amino}phenyl)pyridin-2-yl]amino}propan-2-ol]
100 to 1000 nM	Cc1cc(Nc2nccc(C(F)(F)F)n2)cc(-c2ccc(NCCc3cnc[nH]3)nc2)c1 [Example 7.24, N-[3-(6-{[2-(1H-imidazol-4-yl)ethyl]amino}pyridin-3-yl)-5-methylphenyl]-4-(trifluoromethyl)pyrimidin-2-amine]
< 100 nM	Cc1cc(Nc2nccc(C(F)(F)F)n2)cc(-c2ccc(NCCCN)nc2)c1 [Example 7.26, N-[5-(3-methyl-5-{[4-(trifluoromethyl)pyrimidin-2-yl]amino}phenyl)pyridin-2-yl]propane-1,3-diamine]
< 100 nM	Cc1cc(Nc2nccc(C(F)(F)F)n2)cc(-c2ccc(N3CCNC(=O)CC3)nc2)c1 [Example 7.27, 1-[5-(3-methyl-5-{[4-(trifluoromethyl)pyrimidin-2-yl]amino}phenyl)pyridin-2-yl]-1,4-diazepan-5-one]
< 100 nM	CNC(=O)CN(C)c1ccc(-c2cc(C)cc(Nc3nccc(C(F)(F)F)n3)c2)cn1 [Example 7.28, N,N~2~-dimethyl-N~2~-[5-(3-methyl-5-{[4-(trifluoromethyl)pyrimidin-2-yl]amino}phenyl)pyridin-2-yl]glycinamide]
< 100 nM	Cc1cc(Nc2nccc(C(F)(F)F)n2)cc(-c2ccc(N3CCC(C(N)=O)CC3)nc2)c1 [Example 7.32, 1-[5-(3-methyl-5-{[4-(trifluoromethyl)pyrimidin-2-yl]amino}phenyl)pyridin-2-yl]piperidine-4-carboxamide]
100 to 1000 nM	Cc1cc(Nc2nccc(C(F)(F)F)n2)cc(-c2ccc(NC(C)(C)CO)nc2)c1 [Example 7.35, 2-methyl-2-{[5-(3-methyl-5-{[4-(trifluoromethyl)pyrimidin-2-yl]amino}phenyl)pyridin-2-yl]amino}propan-1-ol]

The remaining lines, values behind:

SMILES	IC50
CC(=O)Nc1cc(Nc2nccc(C(F)(F)F)n2)cc(-c2ccc(N3CC[C@H]3C(=O)O)nc2)c1 [Example 7.2, (2S)-1-{5-[3-(acetylamino)-5-{[4-(trifluoromethyl)pyrimidin-2-yl]amino}phenyl]pyridin-2-yl}azetidine-2-carboxylic acid]	< 100 nM
Cc1cc(Nc2nccc(C(F)(F)F)n2)cc(-c2ccc(N3CC[C@H]3C(=O)O)nc2)c1 [Example 7.6, (2S)-1-[5-(3-methyl-5-{[4-(trifluoromethyl)pyrimidin-2-yl]amino}phenyl)pyridin-2-yl]azetidine-2-carboxylic acid]	< 100 nM
Cc1cc(Nc2nccc(C(F)(F)F)n2)cc(-c2ccc(N3CCCC4(CCCO4)C3)nc2)c1 (stereo not shown) [Example 7.11, N-{3-methyl-5-[6-(1-oxa-7-azaspiro[4.5]dec-7-yl)pyridin-3-yl]phenyl}-4-(trifluoromethyl)pyrimidin-2-amine]	100 to 1000 nM
Cc1cc(Nc2nccc(C(F)(F)F)n2)cc(-c2ccc(N3CCCC4(CCNC4=O)C3)nc2)c1 (stereo not shown) [Example 7.13]	100 to 1000 nM
Cc1cc(Nc2nccc(C(F)(F)F)n2)cc(-c2ccc(N3CCCC4(CCOC4=O)C3)nc2)c1 (stereo not shown) [Example 7.14, 7-[5-(3-methyl-5-{[4-(trifluoromethyl)pyrimidin-2-yl]amino}phenyl)pyridin-2-yl]-2-oxa-7-azaspiro[4.5]decan-1-one]	100 to 1000 nM
Cc1cc(Nc2nccc(C(F)(F)F)n2)cc(-c2ccc(N3CCC4(CCN(C)C4=O)CC3)nc2)c1 [Example 7.15, 2-methyl-8-[5-(3-methyl-5-{[4-(trifluoromethyl)pyrimidin-2-yl]amino}phenyl)pyridin-2-yl]-2,8-diazaspiro[4.5]decan-1-one]	100 to 1000 nM
Cc1cc(Nc2nccc(C(F)(F)F)n2)cc(-c2ccc(NCC3CCC(=O)N3)nc2)c1 (stereo not shown) [Example 7.16, 5-({[5-(3-methyl-5-{[4-(trifluoromethyl)pyrimidin-2-yl]amino}phenyl)pyridin-2-yl]amino}methyl)pyrrolidin-2-one]	< 100 nM
Cc1cc(Nc2nccc(C(F)(F)F)n2)cc(-c2ccc(NCCc3cnccn3)nc2)c1 [Example 7.18, N-(3-methyl-5-{6-[(2-pyrazin-2-ylethyl)amino]pyridin-3-yl}phenyl)-4-(trifluoromethyl)pyrimidin-2-amine]	< 100 nM
Cc1cc(Nc2nccc(C(F)(F)F)n2)cc(-c2ccc(NC(C)c3ccccn3)nc2)c1 (stereo not shown) [Example 7.19, N-(3-methyl-5-{6-[(1-pyridin-2-ylethyl)amino]pyridin-3-yl}phenyl)-4-(trifluoromethyl)pyrimidin-2-amine]	100 to 1000 nM
Cc1cc(Nc2nccc(C(F)(F)F)n2)cc(-c2ccc(NCc3cnn(C)c3)nc2)c1 [Example 7.20, N-[3-methyl-5-(6-{[(1-methyl-1H-pyrazol-4-yl)methyl]amino}pyridin-3-yl)phenyl]-4-(trifluoromethyl)pyrimidin-2-amine]	100 to 1000 nM
Cc1cc(Nc2nccc(C(F)(F)F)n2)cc(-c2ccc(NCc3ncnn3C)nc2)c1 [Example 7.21, N-[3-methyl-5-(6-{[(1-methyl-1H-1,2,4-triazol-5-yl)methyl]amino}pyridin-3-yl)phenyl]-4-(trifluoromethyl)pyrimidin-2-amine]	< 100 nM
Cc1cc(Nc2nccc(C(F)(F)F)n2)cc(-c2ccc(NC3CCNC3=O)nc2)c1 (stereo not shown) [Example 7.22, 3-{[5-(3-methyl-5-{[4-(trifluoromethyl)pyrimidin-2-yl]amino}phenyl)pyridin-2-yl]amino}pyrrolidin-2-one]	< 100 nM
CCC(CO)Nc1ccc(-c2cc(C)cc(Nc3nccc(C(F)(F)F)n3)c2)cn1 (stereo not shown) [Example 7.23, 2-{[5-(3-methyl-5-{[4-(trifluoromethyl)pyrimidin-2-yl]amino}phenyl)pyridin-2-yl]amino}butan-1-ol]	< 100 nM
Cc1cc(Nc2nccc(C(F)(F)F)n2)cc(-c2ccc(NCc3cn(C)cn3)nc2)c1 [Example 7.25, N-[3-methyl-5-(6-{[(1-methyl-1H-imidazol-4-yl)methyl]amino}pyridin-3-yl)phenyl]-4-(trifluoromethyl)pyrimidin-2-amine]	< 100 nM
Cc1cc(Nc2nccc(C(F)(F)F)n2)cc(-c2ccc(NCCN)nc2)c1 [Example 7.25A, N-[5-(3-methyl-5-{[4-(trifluoromethyl)pyrimidin-2-yl]amino}phenyl)pyridin-2-yl]ethane-1,2-diamine]	< 100 nM
CNC(=O)CNc1ccc(-c2cc(C)cc(Nc3nccc(C(F)(F)F)n3)c2)cn1 [Example 7.29, N-methyl-N~2~-[5-(3-methyl-5-{[4-(trifluoromethyl)pyrimidin-2-yl]amino}phenyl)pyridin-2-yl]glycinamide]	< 100 nM
Cc1cc(Nc2nccc(C(F)(F)F)n2)cc(-c2ccc(N(C)CCO)nc2)c1 [Example 7.30, 2-{methyl[5-(3-methyl-5-{[4-(trifluoromethyl)pyrimidin-2-yl]amino}phenyl)pyridin-2-yl]amino}ethanol]	< 100 nM
Cc1cc(Nc2nccc(C(F)(F)F)n2)cc(-c2ccc(NCC(N)=O)nc2)c1 [Example 7.31, N~2~-[5-(3-methyl-5-{[4-(trifluoromethyl)pyrimidin-2-yl]amino}phenyl)pyridin-2-yl]glycinamide]	< 100 nM
Cc1cc(Nc2nccc(C(F)(F)F)n2)cc(-c2ccc(N3CCN(C)C(=O)C3)nc2)c1 [Example 7.33, 1-methyl-4-[5-(3-methyl-5-{[4-(trifluoromethyl)pyrimidin-2-yl]amino}phenyl)pyridin-2-yl]piperazin-2-one]	100 to 1000 nM
Cc1cc(Nc2nccc(C(F)(F)F)n2)cc(-c2ccc(N3CC(O)C3)nc2)c1 [Example 7.36, 1-[5-(3-methyl-5-{[4-(trifluoromethyl)pyrimidin-2-yl]amino}phenyl)pyridin-2-yl]azetidin-3-ol]	< 100 nM
